Values joined by “and” are separate entries in the source; they are usually repeats but may differ in a detail not shown here. Identical values can stand only once.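 How tested: cells in 96-well plates exposed to compound for 48 hours at five concentrations. At the GI50, growth is halved. TGI is the concentration that stops growth completely.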
Key:
Assay in all cases: NCI anticancer screen, dose series, 48 h
CCRF-CEM leukemia = tested on: CCRF-CEM leukemia
OVCAR-8 ovarian = tested on: OVCAR-8 ovarian
SF-295 CNS = tested on: SF-295 CNS
SK-MEL-5 melanoma = tested on: SK-MEL-5 melanoma
A498 renal = tested on: A498 renal
SF-268 CNS = tested on: SF-268 CNS
SK-OV-3 ovarian = tested on: SK-OV-3 ovarian
LOX IMVI melanoma = tested on: LOX IMVI melanoma
MDA-N = tested on: MDA-N

Row | SMILES | TGI (CCRF-CEM leukemia) | TGI (OVCAR-8 ovarian) | TGI (SF-295 CNS) | TGI (SK-MEL-5 melanoma) | TGI (A498 renal) | TGI (SF-268 CNS) | TGI (SK-OV-3 ovarian) | TGI (LOX IMVI melanoma) | TGI (MDA-N) | GI50 (CCRF-CEM leukemia) | GI50 (SF-295 CNS) | GI50 (SK-MEL-5 melanoma) | GI50 (A498 renal)
1 | CCCCNC1CCC2(SCCS2)c2[nH]c3ccccc3c21 (stereo not drawn) | > 59.7 µM | 66.3 µM | > 100 µM | 18 µM | 76.7 µM | > 100 µM | > 100 µM | 14.4 µM |  |  |  |  | 
2 | O=S(=O)(Oc1ccc2oc3ccccc3c2c1-c1c(OS(=O)(=O)C(F)(F)F)ccc2oc3ccccc3c12)C(F)(F)F | > 100 µM | > 100 µM | > 100 µM | > 100 µM | > 100 µM | > 100 µM | > 100 µM | > 100 µM |  |  |  |  | 
3 | O=c1cc(CNC2CCCC2)[nH]c(=O)[nH]1 | > 100 µM | > 100 µM | > 100 µM | > 100 µM | > 100 µM | > 100 µM | > 100 µM | > 100 µM | > 100 µM |  |  |  | 
4 | C=C(C)C(=O)CC[C@@H](C)[C@H]1[C@@H](OC2OC(CO)C(O)C(O)C2O)C[C@@]2(C)[C@@H]3C[C@H](O)C4C(C)(C)[C@@H](OC5OC(CO)C(O)C(O)C5O)CC[C@@]45C[C@@]35CC[C@]12C (stereo partly drawn) | > 100 µM | > 100 µM | > 100 µM | > 100 µM | > 100 µM | > 100 µM | > 100 µM | > 100 µM | 55.6 µM |  |  |  | 
5 | Clc1ccc(-c2ccc(-c3nnc(CCc4nnc(-c5ccc(-c6ccc(Cl)cc6)o5)o4)o3)o2)cc1 | 16.9 µM | > 100 µM | > 100 µM | > 100 µM | > 92.2 µM | > 100 µM | > 90.4 µM | > 100 µM | > 100 µM |  |  |  | 
6 | COc1ccc(-c2nc(N)c(C#N)c3c2CCS(=O)(=O)c2ccc(C)cc2-3)cc1OC |  | > 100 µM |  | > 100 µM | 62.5 µM | > 100 µM |  | > 100 µM | 51 µM |  |  |  | 
7 | O=C1Oc2ccccc2C(=O)/C1=C/N1C(=O)N/C(=C\c2ccccc2O)C1=O | > 100 µM | > 100 µM | > 100 µM | > 100 µM | > 100 µM | > 100 µM | > 100 µM | > 100 µM | > 100 µM |  |  |  | 
8 | C1=C\SS/C=C\SS/C=C\SS/C=C\SS/1 | 61.9 µM | > 100 µM | > 100 µM | > 100 µM | > 100 µM | > 100 µM | > 100 µM | > 100 µM | > 100 µM |  |  |  | 
9 | O=C(Cn1c(=O)oc2ccc(C(=O)c3ccc(F)cc3)cc21)c1ccc([N+](=O)[O-])cc1 | > 100 µM | > 100 µM |  | 34 µM | > 100 µM | > 100 µM | > 100 µM | > 100 µM | 60.9 µM |  |  |  | 
10 | COc1cccc2c1OC1c3ccccc3OCC1C2 (stereo not drawn) | > 100 µM | > 100 µM | > 100 µM | > 100 µM | > 100 µM | > 100 µM | > 100 µM | > 100 µM | > 100 µM |  |  |  | 
11 | CC[C@@]1(O)C(=O)OCc2c1cc1n(c2=O)Cc2c-1nc1ccccc1c2/C=N\NC(=O)C(N)CC(C)C (stereo partly drawn) | 0.629 µM | 1.44 µM | 0.694 µM | 0.0807 µM | 0.263 µM | 3.68 µM |  | 0.244 µM | > 100 µM |  |  |  | 
12 | Cc1ccc(S(=O)(=O)c2scc(-c3ccccc3)c2C)cc1 |  | > 100 µM | > 100 µM | > 100 µM |  | > 100 µM | > 100 µM | > 100 µM | > 100 µM |  |  |  | 
13 | COc1ccc2oc(=N)c(C(=O)Nc3cccc4ccccc34)cc2c1 | > 100 µM |  | 25.4 µM | > 100 µM | 39.2 µM | > 100 µM | 92.7 µM |  | 18.8 µM |  |  |  | 
14 | O=c1[nH]c(=O)n(C2CC(O)C(CO)O2)cc1I (stereo not drawn) | > 100 µM | > 100 µM | > 100 µM | > 100 µM | > 100 µM | > 100 µM | > 100 µM | > 100 µM | > 100 µM |  |  |  | 
15 | CC1=NN(C(=O)CSc2nnc(SCC(=O)N3N=C(C)CC3(O)c3ccccc3)s2)C(O)(c2ccccc2)C1 (stereo not drawn) | > 100 µM | > 100 µM | > 100 µM | > 100 µM | > 100 µM | 47.2 µM | > 100 µM | > 100 µM | > 100 µM |  |  |  | 
16 | O=C1c2ccccc2C(=O)N1n1c(Cc2ccccc2)n[nH]c1=O | > 100 µM | > 100 µM | > 100 µM | > 100 µM | > 100 µM |  |  | > 100 µM | > 100 µM |  |  |  | 
17 | CCOC(=O)c1cccc(NC(=O)CCl)c1 | 10.6 µM | > 30.1 µM | 26.1 µM | 3.69 µM | 29.2 µM | 5.69 µM | 15.3 µM | 3.89 µM | 14.7 µM |  |  |  | 
18 | O=C(Cc1ccccc1)NCCc1ccc(O)c(O)c1 | 24.3 µM | > 100 µM | > 100 µM | > 100 µM | > 100 µM | > 100 µM | > 100 µM | > 100 µM | 34.9 µM |  |  |  | 
19 | O=C1NC(N/N=C\C(O)C(O)C(O)CO)=N/C1=C/c1ccccc1 (stereo not drawn) | > 100 µM | > 100 µM | > 100 µM | > 100 µM | > 100 µM | > 100 µM | > 100 µM | > 100 µM | > 100 µM | 65.9 µM and 32.7 µM | > 100 µM and 38.2 µM | > 100 µM and 38.9 µM | > 100 µM and 39.3 µM
20 | CC1=NN(c2nc(N)nc(-c3ccccc3S(N)(=O)=O)n2)C(C)(C)C1 | > 100 µM | > 100 µM | > 100 µM | > 100 µM | 64.5 µM | > 100 µM | > 100 µM | > 100 µM | > 100 µM |  |  |  | 
21 | C/C=C/[C@@]1(OC(=O)c2ccccc2)C[C@@H]2CCCC[C@@H]21 | 45.4 µM | 34.7 µM | 33.3 µM | 29.3 µM |  | 32.4 µM | 32.6 µM | 44.7 µM | 33.4 µM |  |  |  | 
22 | C=CCNC(=S)Nc1sc2c(c1C(=O)OCC)CC(C)CC2 (stereo not drawn) |  | > 100 µM | 59.5 µM | 30.7 µM |  | > 100 µM | 69.4 µM | > 100 µM | > 100 µM |  |  |  | 
23 | CC(=O)NC1C(OCc2ccccc2)OC(CO)C(O)C1OCC(=O)NC(C)C(=O)NC(CCC(=O)NCCCCNc1ccc([N+](=O)[O-])c2[nH]c3ccccc3c(=O)c12)C(N)=O (stereo not drawn) |  | > 100 µM | > 100 µM |  | > 100 µM | > 100 µM | > 100 µM | > 100 µM | > 100 µM |  |  |  | 
